Bounds are passed on as bounds.

39 compounds from patent US10343992B2, “1-cyano-pyrrolidine compounds as USP30 inhibitors” (MISSION THERAPEUTICS LIMITED, priority 2015, dated 2019) can be followed below.

The target in this assay is USP30 (Homo sapiens (Human), UniProt Q70CQ3). The assay can be described thus: USP30 biochemical FP or FI IC50 assay. The following applies: read-out: IC50 range. The method in brief: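 Human USP30 preincubated 30 min at room temperature with compound (8-point series, 100 µM top final) in Tris pH 7.5, Tween 20, BSA, 5 mM β-mercaptoethanol, in duplicate. FP format: 50 nM TAMRA-peptide–isopeptide-ubiquitin substrate, ex 540/em 590. FI format: 100 nM ubiquitin-rhodamine 110, ex 487/em 535. Both read at 0 and after 2 h at room temperature.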
Chain of USP30 (Q70CQ3 57-517): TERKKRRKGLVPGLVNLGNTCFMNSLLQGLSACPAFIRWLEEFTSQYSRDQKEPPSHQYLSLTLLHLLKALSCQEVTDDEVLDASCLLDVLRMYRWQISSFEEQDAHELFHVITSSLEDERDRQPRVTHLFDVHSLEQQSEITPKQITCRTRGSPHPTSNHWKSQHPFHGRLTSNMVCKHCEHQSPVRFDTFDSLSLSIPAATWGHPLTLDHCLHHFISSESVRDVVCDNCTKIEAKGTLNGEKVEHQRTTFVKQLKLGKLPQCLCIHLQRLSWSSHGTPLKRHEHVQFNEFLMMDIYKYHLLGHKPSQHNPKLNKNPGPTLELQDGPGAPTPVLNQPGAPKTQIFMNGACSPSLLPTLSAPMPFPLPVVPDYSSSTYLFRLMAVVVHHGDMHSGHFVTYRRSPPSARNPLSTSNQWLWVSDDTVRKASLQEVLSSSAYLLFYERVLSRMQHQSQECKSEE
Take `N#Cc1cccc(-c2ccc3nc(C(=O)N[C@@H]4CCN(C#N)C4)cn3c2)c1` [Example 116, (R)-6-(3-cyanophenyl)-N-(1-cyanopyrrolidin-3-yl)imidazo[1,2-a]pyridine-2-carboxamide]: the IC50 (as a rule, the point on the concentration scale where inhibition reaches its midpoint) was less than 100 nM.

Turning to `Cn1cc(-c2ccc3nc(C(=O)N[C@@H]4CCN(C#N)C4)cn3c2)cn1` [Example 124, (R)-N-(1-cyanopyrrolidin-3-yl)-6-(1-methyl-1H-pyrazol-4-yl)imidazo[1,2-a]pyridine-2-carboxamide], the IC50 was 100 to 1000 nM.

Take `N#Cc1ccc(-c2ccc3nc(C(=O)N[C@@H]4CCN(C#N)C4)cn3c2)cc1` [Example 117, (R)-6-(4-cyanophenyl)-N-(1-cyanopyrrolidin-3-yl)imidazo[1,2-a]pyridine-2-carboxamide]: the IC50 fell in the range of 100 to 1000 nM.

With `CCOC(=O)N1CCN(c2ccc(C(=O)NC3CCN(C#N)C3)cn2)CC1` (racemic) [Example 20, ethyl 4-(5-((1-cyanopyrrolidin-3-yl)carbamoyl)pyridin-2-yl)piperazine-1-carboxylate], the IC50 lay in the range of 1000 to 10000 nM.

`C[C@@H]1CN(C#N)C[C@H]1NC(=O)c1cnc(-c2ccccc2)s1` [Example 72, N-((3S,4R)-1-cyano-4-methylpyrrolidin-3-yl)-2-phenylthiazole-5-carboxamide]: the IC50 was less than 100 nM.

Regarding `N#CN1CC[C@@H](NC(=O)c2ccc(-c3ccccn3)cn2)C1` [Example 216, (R)-N-(1-cyanopyrrolidin-3-yl)-[2, 3′-bipyridine]-6′-carboxamide], the IC50 is 100 to 1000 nM.

Regarding `Cn1cc(-c2cc(F)c(C(=O)N[C@@H]3CCN(C#N)C3)cc2F)cn1` [Example 78, (R)-N-(1-cyanopyrrolidin-3-yl)-2,5-difluoro-4-(1-methyl-1H-pyrazol-4-yl)benzamide], the IC50 was less than 100 nM.

As to `Cn1ccc2cc(-c3cnc(C(=O)N[C@@H]4CCN(C#N)C4)c(F)c3)cnc21` [Example 121, (R)-N-(1-cyanopyrrolidin-3-yl)-3-fluoro-5-(1-methyl-1H-pyrrolo[2,3-b]pyridin-5-yl)picolinamide], the IC50 is less than 100 nM.

Regarding `Cc1nn(C)cc1-c1ccn2c(C(=O)N(C)[C@@H]3CCN(C#N)C3)cnc2c1` [Example 163, (R)-N-(1-cyanopyrrolidin-3-yl)-7-(1,3-dimethyl-1H-pyrazol-4-yl)-N-methylimidazo[1,2-a]pyridine-3-carboxamide], the IC50 fell in the range of 100 to 1000 nM.

Regarding `CN(C(=O)Nc1ccc(-c2cnn(C)c2)cc1)[C@@H]1CCN(C#N)C1` [Example 194, (R)-1-(1-cyanopyrrolidin-3-yl)-1-methyl-3-(4-(1-methyl-1H-pyrazol-4-yl)phenyl)urea], the IC50 lay in the range of 100 to 1000 nM.

`N#CN1CC[C@@H](NC(=O)c2ncc(-c3ccc(F)cc3)cc2Cl)C1` [Example 123, (R)-3-chloro-N-(1-cyanopyrrolidin-3-yl)-5-(4-fluorophenyl)picolinamide]: the IC50 is less than 100 nM.

In the case of `N#CN1CC[C@@H](NC(=O)c2ccc(Nc3ncccn3)cc2F)C1` [Example 91, (R)—N-(1-cyanopyrrolidin-3-yl)-2-fluoro-4-(pyrimidin-2-ylamino)benzamide], the IC50 was less than 100 nM.

Regarding `Cn1cc(-c2cccc(C(=O)N[C@@H]3CCN(C#N)C3)c2F)cn1` [Example 104, (R)-N-(1-cyanopyrrolidin-3-yl)-2-fluoro-3-(1-methyl-1H-pyrazol-4-yl)benzamide], the IC50 is 100 to 1000 nM.

Consider `N#CN1CCC(NC(=O)c2ccc(N3CCC(Oc4ccccc4)CC3)nc2)C1` (stereo not drawn) [Example 22, N-(1-cyanopyrrolidin-3-yl)-6-(4-phenoxypiperidin-1-yl)nicotinamide], for which the IC50 lay within 100 to 1000 nM.

Take `Cc1ccc(-c2ccn3c(C(=O)N(C)[C@@H]4CCN(C#N)C4)cnc3c2)cn1` [Example 162, (R)-N-(1-cyanopyrrolidin-3-yl)-N-methyl-7-(6-methylpyridin-3-yl)imidazo[1,2-a]pyridine-3-carboxamide]: the IC50 was 100 to 1000 nM.

With `COc1c(-c2cnn(C)c2)ccc(C(=O)N[C@@H]2CCN(C#N)C2)c1F` [Example 115, (R)-N-(1-cyanopyrrolidin-3-yl)-2-fluoro-3-methoxy-4-(1-methyl-1H-pyrazol-4-yl)benzamide], the IC50 lay in the range of 100 to 1000 nM.

For `N#CN1CCC(NC(=O)c2ccc(Oc3ccccc3)cc2)C1` (racemic) [Example 15, N-(1-cyanopyrrolidin-3-yl)-4-phenoxybenzamide], the IC50 fell in the range of 1000 to 10000 nM.

As for `CN(C(=O)c1cc2cc(-c3cnn(C)c3)ccc2[nH]1)[C@@H]1CCN(C#N)C1` [Example 157, (R)-N-(1-cyanopyrrolidin-3-yl)-N-methyl-5-(1-methyl-1H-pyrazol-4-yl)-1H-indole-2-carboxamide], the IC50 was less than 100 nM.

`N#CN1CC[C@@H](NC(=O)c2ccc(-c3cnc4cnccn34)cc2F)C1` [Example 185, (R)-N-(1-cyanopyrrolidin-3-yl)-2-fluoro-4-(imidazo[1,2-a]pyrazin-3-yl)benzamide]: the IC50 is less than 100 nM.

On to `N#CN1CC[C@@H](NC(=O)c2ccc(-c3ccn4nccc4n3)cc2F)C1` [Example 172, (R)-N-(1-cyanopyrrolidin-3-yl)-2-fluoro-4-(pyrazolo[1,5-a]pyrimidin-5-yl)benzamide], for which the IC50 was less than 100 nM.

On to `Cn1cc(-c2ccc3c(C(=O)N[C@@H]4CCN(C#N)C4)cnn3c2)cn1` [Example 114, (R)-N-(1-cyanopyrrolidin-3-yl)-6-(1-methyl-1H-pyrazol-4-yl)pyrazolo[1,5-a]pyridine-3-carboxamide], for which the IC50 fell in the range of 100 to 1000 nM.

In the case of `N#CN1CC[C@@H](NC(=O)N2CCC(c3ccccc3)C2)C1` (stereo partly drawn) [Example 46, N-((R)-1-cyanopyrrolidin-3-yl)-3-phenylpyrrolidine-1-carboxamide], the IC50 was 100 to 1000 nM.

`C[C@@H]1CN(c2cc(C(=O)N[C@@H]3CCN(C#N)C3)c(F)cn2)C[C@H](C)O1` [Example 140, N-((R)-1-cyanopyrrolidin-3-yl)-2-((2S,6R)-2,6-dimethylmorpholino)-5-fluoroisonicotinamide]: the IC50 lay within 100 to 1000 nM.

`N#CN1CC[C@@H](NC(=O)N2CC(c3nc4ccccc4[nH]3)C2)C1` [Example 134, (R)-3-(1H-benzo[d]imidazol-2-yl)-N-(1-cyanopyrrolidin-3-yl)azetidine-1-carboxamide]: the IC50 fell in the range of 100 to 1000 nM.

In the case of `CN(C(=O)N1CCOC(c2ccccc2)C1)[C@@H]1CCN(C#N)C1` (stereo partly drawn) [Example 264, N-((R)-1-cyanopyrrolidin-3-yl)-N-methyl-2-phenylmorpholine-4-carboxamide], the IC50 is 100 to 1000 nM.

As for `CCN(C(=O)Nc1ccc(C(F)(F)F)cc1)[C@@H]1CCN(C#N)C1` [Example 204, (R)-1-(1-cyanopyrrolidin-3-yl)-1-ethyl-3-(4-(trifluoromethyl)phenyl)urea], the IC50 is less than 100 nM.

With `Cn1cc(-c2ccc(C(=O)N[C@@H]3CN(C#N)C[C@@H]3C3CC3)cc2F)cn1` (relative stereo) [Example 177, N-((cis)-1-cyano-4-cyclopropylpyrrolidin-3-yl)-3-fluoro-4-(1-methyl-1H-pyrazol-4-yl)benzamide], the IC50 is 100 to 1000 nM.

With `Cc1noc(C)c1-c1ccc2c(C(=O)N[C@@H]3CCN(C#N)C3)nn(CC3CC3)c2c1` [Example 155, (R)-N-(1-cyanopyrrolidin-3-yl)-1-(cyclopropylmethyl)-6-(3,5-dimethylisoxazol-4-yl)-1H-indazole-3-carboxamide], the IC50 is less than 100 nM.

In the case of `N#CN1CCC(NC(=O)c2ccc(N3CCN(c4ccc(F)cc4F)CC3)nc2)C1` (racemic) [Example 19, N-(1-cyanopyrrolidin-3-yl)-6-(4-(2,4-difluorophenyl)piperazin-1-yl)nicotinamide], the IC50 was 100 to 1000 nM.

As for `COc1cc(C(=O)N[C@@H]2CCN(C#N)C2)ccc1Nc1ncccn1` [Example 147, (R)-N-(1-cyanopyrrolidin-3-yl)-3-methoxy-4-(pyrimidin-2-ylamino)benzamide], the IC50 was 100 to 1000 nM.

For the compound `COc1cc(C(=O)N[C@@H]2CCN(C#N)C2)ccc1Nc1nccc(C)n1` [Example 148, (R)-N-(1-cyanopyrrolidin-3-yl)-3-methoxy-4-((4-methylpyrimidin-2-yl)amino)benzamide], the IC50 was in the range of 100 to 1000 nM.

In the case of `N#CN1C[C@H]2CCN(C(=O)Nc3ccc(Cl)cc3F)[C@H]2C1` [Example 196, (3aR,6aR)-N-(4-chloro-2-fluorophenyl)-5-cyanohexahydropyrrolo[3,4-b]pyrrole-1(2H)-carboxamide], the IC50 lay in the range of 100 to 1000 nM.

Consider `N#CN1CC[C@H](NC(=O)c2cccc(-c3ccccc3)n2)C1` [Example 48, (S)-N-(1-cyanopyrrolidin-3-yl)-6-phenylpicolinamide], for which the IC50 was 1000 to 10000 nM.

Turning to `CN(C(=O)Nc1ccc(-c2ccccc2)cc1)C1CCN(C#N)C1` (stereo not drawn) [Example 259, 3-([1,1′-biphenyl]-4-yl)-1-(1-cyanopyrrolidin-3-yl)-1-methylurea], the IC50 is less than 100 nM.

Turning to `N#CN1CCC(NC(=O)c2cccc(N3CCc4ccccc4C3)n2)C1` (racemic) [Example 25, N-(1-cyanopyrrolidin-3-yl)-6-(3,4-dihydroisoquinolin-2(1H)-yl)picolinamide], the half-inhibitory concentration (IC50) was 1000 to 10000 nM.

Consider `N#CN1CC[C@@H](NC(=O)N2CC(Oc3ccccc3)C2)C1` [Example 133, (R)-N-(1-cyanopyrrolidin-3-yl)-3-phenoxyazetidine-1-carboxamide], for which the IC50 fell in the range of 100 to 1000 nM.

For the compound `CN(C(=O)Nc1cccc(Cc2ccccc2)c1)C1CCN(C#N)C1` (stereo not drawn) [Example 256, 3-(3-benzylphenyl)-1-(1-cyanopyrrolidin-3-yl)-1-methylurea], the IC50 was 100 to 1000 nM.

With `N#CN1CCC(NC(=O)c2cccc(N3CCC(Oc4ccccc4)CC3)n2)C1` (racemic) [Example 26, N-(1-cyanopyrrolidin-3-yl)-6-(4-phenoxypiperidin-1-yl)picolinamide], the IC50 is 1000 to 10000 nM.

On to `Cc1noc(C)c1-c1ccc(C(=O)NC2CCN(C#N)C2)cc1` (racemic) [Example 12, N-(1-cyanopyrrolidin-3-yl)-4-(3,5-dimethylisoxazol-4-yl)benzamide], for which the IC50 fell in the range of 100 to 1000 nM.
